For the test, the target named is Delta-type opioid receptor (Homo sapiens, UniProt P41143). Kind of test: delta opioid receptor blockers – image-based, SAR follow-up (AID 2357).

Molecules are shown by their SMILES.

Chain of Delta-type opioid receptor (P41143 whole entry): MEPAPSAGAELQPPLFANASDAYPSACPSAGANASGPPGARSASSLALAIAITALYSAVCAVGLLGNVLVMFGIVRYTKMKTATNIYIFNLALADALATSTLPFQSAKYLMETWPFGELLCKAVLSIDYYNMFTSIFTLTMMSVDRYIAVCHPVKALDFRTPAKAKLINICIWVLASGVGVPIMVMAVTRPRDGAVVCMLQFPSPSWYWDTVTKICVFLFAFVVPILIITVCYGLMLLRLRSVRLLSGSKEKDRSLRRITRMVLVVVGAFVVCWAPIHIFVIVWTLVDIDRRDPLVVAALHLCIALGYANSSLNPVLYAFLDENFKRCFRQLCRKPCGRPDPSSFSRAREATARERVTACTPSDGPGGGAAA

`Oc1ccc(CN=Nc2ccnc3cc(Cl)ccc23)cc1O` [(4Z)-4-[[2-(7-chloroquinolin-4-yl)hydrazinyl]methylidene]-2-hydroxycyclohexa-2,5-dien-1-one]: half-maximal inhibition (IC50) required 18.9 µM.
The figure for `CCC(N=Nc1ccnc2cc(Cl)ccc12)c1ccc(O)cc1` (configuration not stated) [4-[1-[2-(7-chloroquinolin-4-yl)hydrazinyl]propylidene]cyclohexa-2,5-dien-1-one] is 32 µM.
